Source: US20080167387A1, “Microglia Facilitated Amyloidogenesis Assay” (Pfizer Inc., priority 2005, published 2008)
Entries after “also recorded” stand apart in the source; their conditions may differ. Like-named read-outs stand apart in the source and are kept apart here.

What was measured:
[1] = test system: amyloid formation from Aβ(1-42) peptides mediated by rat primary microglia; experiment: Microglial-facilitated amyloidogenesis (MFA) assay, thioflavin S staining; assay type: cell-based; details: for amyloid formation mediated by microglia (thioflavin S staining) / amyloid formation mediated by rat primary microglia (thioflavin S staining): 37° C., 18 hours; for amyloid formation mediated by rat primary microglia (thioflavin S staining): 0.32 μM or 3.2 μM
Procedure: Primary rat brain microglia prepared as described in Example 1, were plated into Falcon black/clear 96 well plates at a concentration of 2×10^5 cells per well. The microglia were allowed to attach to cell walls after incubation at 37° C. for several hours to overnight. Fresh DMEM, with 10% fetal bovine serum, 0.1% penicillin/streptomycin and L-glutamine at 200 mM was used to replace the old media, while cells were gently washed to remove debris and dead cells.
[…] (The pre-treatment step is optional.) After pre-treatment, the candidate compound and Aβ (1-42) peptides were added to the pre-treated cells. The final concentration of Aβ (1-42) peptides was 10 μM. […] The final volume for each well was about 100 μl/well.
Aβ (1-42) peptides and Aβ (1-40) peptides, obtained from American Peptides of Sunnyvale, Calif., were stored at −20° C. Before use, Aβ (1-42) peptides were allowed to warm to room temperature for 15 minutes. To dissolve the Aβ (1-42) peptides, 200 μl of sterile water was added to the peptides. Each sample of peptides was vortexed to dissolve the peptides. Each sample was then diluted with 19 mls of MSFM. The final concentration of Aβ (1-42) peptides was 10 μM.
[…] After incubation, microglia were fixed with 100 μl of 95% ethanol and 5% acetic acid, which was directly poured into the media, and then incubated for 5 min. The media were poured out, and another 100 μl of fresh fixative having 95% ethanol and 5% acetic acid was added to the microglia for 10 min.
Fixed cells were stained with 100 μl thioflavin S solution, obtained from Sigma of St Louis, Mo. for approximately 3-5 min. Thioflavin S solution was 0.125 mg/ml in 40% ethanol, filtered through #1 Whatman filter paper before use.
Cells were washed twice, each time for 5 min, with 100 μl of 70% ethanol. After the washes, the cells were examined using an FITC filter under a fluorescent microscope. For each well, 3 images were collected and images were captured on a Zeiss Axiovert 100 M, with a 10× objective, using a digital CCD camera, and using MicroMax obtained from Roper Instruments of Tuscon, Ariz. Each treatment condition was run in triplicate, with 3 images collected per well to avoid areas with sparse cell growth and debris. Relative fluorescence intensity was measured.

rat primary microglia = experiment: Microglial viability, MTT reaction product
Procedure: The viability of microglia was also determined by measuring the level of the tetrazolium salt 3,[4,5-dimethylthiazol-2-yl]-2,5-diphenyltetrazolium bromide (MTT) reaction product, using the method provided by Trevigen Inc. of Gaithersburg, Md.

[2] = test system: intracellular cAMP in rat primary microglia; experiment: Level of intracellular cAMP in microglia; assay type: cell-based; details: 1 μM, about 20 minutes
Procedure: The effect on the level of intracellular cAMP in microglia by PGE2 was also investigated. Rat primary microglia were prepared using the methods described in Example 1, and were exposed to PGE2, at a concentration of 1 μM, for about 20 minutes. […] Microglial viability was investigated by measuring the MTT reaction product in microglia.

[3] = 32 nM-10 μM, one hour prior to 10 μM Aβ(1-42)
[4] = Example 15, prostaglandin E2 receptor agonists

In the case of CCCC1([C@H](O)C/C=C/[C@H]2[C@H](O)CC(=O)[C@@H]2CCCCCCC(=O)OC)CCC1 [butaprost], the “amyloid formation mediated by microglia (thioflavin S staining)” value (“amyloid formation mediated by microglia” below) [1, 3] is reported as “inhibit” and the “microglial viability (MTT reaction product)” value (from here on “microglial viability”) (rat primary microglia; [4]) is reported as “neither butaprost nor sulprostone had any effect”.
For CC[C@H](C)C(=O)O[C@H]1C[C@@H](C)C=C2C=C[C@H](C)[C@H](CC[C@@H]3C[C@@H](O)CC(=O)O3)[C@H]21 [lovastatin], the “result in the MFA assay” value ([1]; conditions not given) was “very positively”.
CS(=O)(=O)NC(=O)CCC/C=C\C[C@H]1C(=O)C[C@@H](O)[C@@H]1/C=C/[C@@H](O)COc1ccccc1 [sulprostone] was tested, and the “microglial viability” value (rat primary microglia; [4]) was “neither butaprost nor sulprostone had any effect”.
For CC(C)(C)c1ccc(CN(Cc2cccc(OCC(=O)O)c2)S(=O)(=O)c2cccnc2)cc1 [Compound I, (3-{[(4-tert-Butyl-benzyl)-(pyridine-3-sulfonyl)-amino]-methyl}-phenoxy)-acetic acid], the “amyloid formation mediated by microglia” value [1, 3] was “inhibited”.
With NC[C@H](O)c1ccc(O)c(O)c1 [Norepinephrine] the cell-mediated amyloidogenesis ([1]; conditions not given) was “blocks”.
For CCCCc1ccc(CN(CCCCCCC(=O)O)S(C)(=O)=O)cc1 [Compound II], the “amyloid formation mediated by microglia” value [1, 3] was “inhibited”.
In the case of CCCCC[C@H](O)/C=C/[C@H]1[C@H](O)CC(=O)[C@@H]1C/C=C\CCCC(=O)O [PGE2, Prostaglandin E2], the “amyloid formation mediated by rat primary microglia (thioflavin S staining)” value ([1]; from one hour prior to 10 μM Aβ(1-42)) is reported as “able to reduce”, the “amyloid formation mediated by rat primary microglia (thioflavin S staining)” value ([1]; from one hour prior to 10 μM Aβ(1-42), listed as prostaglandin EP2 sub-type) is reported as “inhibitory effect” and the “microglial viability” value (rat primary microglia) is reported as “did not lead to any decrease”. The “level of intracellular cAMP in microglia” value [2] was “significantly increased” and the “level of intracellular cAMP in microglia” value ([2]; listed as prostaglandin subtype EP2) was “increases”.
With CCCC(=O)Nc1ncnc2c1ncn2[C@@H]1O[C@@H]2COP(=O)(O)O[C@H]2[C@H]1OC(=O)CCC [db-cAMP, dibutyryl-cAMP] the “amyloid formation mediated by microglia” value ([1]; db-cAMP 8-80 μM, 8-Br cAMP 25-250 μM, from one hour prior to 10 μM Aβ(1-42)) was “inhibited; also recorded: inhibition” and the “microglial viability” value (rat primary microglia; Example 13, cAMP analogs) was “neither db-cAMP nor 8-Br cAMP had any effect”.
With CC[C@H](C)C(=O)O[C@H]1CCC=C2C=C[C@H](C)[C@H](CC[C@@H]3C[C@@H](O)CC(=O)O3)[C@H]21 [mevastatin] the “result in the MFA assay” value ([1]; conditions not given) was “very positively”.
For CC(C)c1c(C(=O)Nc2ccccc2)c(-c2ccccc2)c(-c2ccc(F)cc2)n1CC[C@@H](O)C[C@@H](O)CC(=O)O [atorvastatin], the “result in the MFA assay” value ([1]; conditions not given) was “very positively”.
